# Results published in patent US20230127046A1, “G9a INHIBITOR” (RIKEN, priority 2019, published 2023).
# Biological target: T1, recombinant human G9a protein (Homo sapiens, UniProt Q96KQ7)
# T1 construct: purchased BPS Bioscience Inc. #51001
# T1 sequence (Q96KQ7 785-1210 limits assumed): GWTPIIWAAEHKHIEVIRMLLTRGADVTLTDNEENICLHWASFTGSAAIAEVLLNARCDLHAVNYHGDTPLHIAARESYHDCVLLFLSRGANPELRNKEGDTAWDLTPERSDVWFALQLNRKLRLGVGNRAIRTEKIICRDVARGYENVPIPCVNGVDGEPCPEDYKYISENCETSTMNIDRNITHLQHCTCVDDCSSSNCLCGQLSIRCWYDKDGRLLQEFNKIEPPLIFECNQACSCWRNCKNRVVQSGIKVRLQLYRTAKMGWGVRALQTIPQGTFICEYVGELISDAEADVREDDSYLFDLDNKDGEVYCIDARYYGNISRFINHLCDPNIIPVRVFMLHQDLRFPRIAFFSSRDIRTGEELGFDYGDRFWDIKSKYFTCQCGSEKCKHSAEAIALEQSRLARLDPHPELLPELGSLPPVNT
# Assay: G9a inhibitory activity test (ALPHA)
# Assay type: biochemical
# Conditions: biotinylated histone H3 peptide (1-21), SAM, read-out: Inhibitory activity (G9a IC50 value)
# Outline: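 Human G9a (0.05 to 0.1 nM) in Tris pH 9.0 buffer preincubated with compound 10 min, then biotinylated histone H3 (1-21) peptide and SAM mixed 1:1 from 500 nM and 150 μM solutions, 1 h at room temperature. H3K9me2 detected by AlphaLISA acceptor/streptavidin donor beads; IC50 from percent inhibition relative to no-compound and no-enzyme controls.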
row,IC50 [nM],Structure (SMILES)
1,≥ 200,CCCCC(NC(=O)c1[nH]c2c(c1C)C(=O)CC(C)(C)C2)C(=O)Nc1cccc(-c2ccccn2)c1 (stereo not shown) [Example 1-105]
2,≥ 200,CCCCC(NC(=O)c1[nH]c2c(c1C)C(=O)CC(C)(C)C2)C(=O)Nc1ccccc1C(F)(F)F (stereo not shown) [Example 1-27]
3,≥ 200,CSc1ccc(NC(=O)C(CCC2CC2)NC(=O)c2[nH]c3c(c2C)C(=O)CC(C)(C)C3)cn1 (stereo not shown) [Example 1-72]
4,≥ 200,CCCCC(NC(=O)c1[nH]c2c(c1C)C(=O)CC(C)(C)C2)C(=O)Nc1cccc(Cl)c1C (stereo not shown) [Example 1-30]
5,50 to 200,Cc1c(C(=O)NC(CCC2CC2)C(=O)Nc2ccc(O)nc2)[nH]c2c1C(=O)CC(C)(C)C2 (stereo not shown) [Example 1-70]
6,< 50,CCc1cc(C#N)ccc1NC(=O)C(CCC1CC1)NC(=O)c1[nH]c2c(c1C)C(=O)CC(C)(C)C2 (stereo not shown) [Example 1-66]
7,≥ 200,Cc1c(C(=O)NC(CCC2CC2)C(=O)Nc2ccncc2)[nH]c2c1C(=O)CC(C)(C)C2 (stereo not shown) [Example 1-73]
8,≥ 200,Cc1ccc2c(c1)CCN2C(=O)C(CCC1CC1)NC(=O)c1[nH]c2c(c1C)C(=O)CC(C)(C)C2 (stereo not shown) [Example 1-77]
9,50 to 200,CCCCC(NC(=O)c1[nH]c2c(c1C)C(=O)CC(C)(C)C2)C(=O)N[C@@H]1CCCc2ccccc21 (stereo partly shown) [Example 1-104]
10,≥ 200,CCCCC(NC(=O)c1[nH]c2c(c1C)C(=O)CC(C)(C)C2)C(=O)Nc1cccc(C(=O)OC)c1C (stereo not shown) [Example 1-106]
11,50 to 200,Cc1c(C(=O)NC(CCC2CC2)C(=O)Nc2cccc(C#N)c2)[nH]c2c1C(=O)CC(C)(C)C2 (stereo not shown) [Example 1-62]
12,≥ 200,CCCCC(NC(=O)c1[nH]c2c(c1C)C(=O)CC(C)(C)C2)C(=O)Nc1ccnn1CC (stereo not shown) [Example 1-17]
13,≥ 200,CCCCC(NC(=O)c1[nH]c2c(c1C)C(=O)CC(C)(C)C2)C(=O)Nc1ccccc1C (stereo not shown) [Example 1-13]
14,≥ 200,CCCCC(NC(=O)c1[nH]c2c(c1C)C(=O)CC(C)(C)C2)C(=O)Nc1cccc(CN2CCOCC2)c1 (stereo not shown) [Example 1-99]
15,≥ 200,Cc1c(C(=O)NC(C(=O)Nc2ccc(OC3CCN(C)CC3)nc2)c2ccccc2)[nH]c2c1C(=O)CC(C)(C)C2 (stereo not shown) [Example 1-86]
16,≥ 200,CCCCC(NC(=O)c1[nH]c2c(c1C)C(=O)CC(C)(C)C2)C(=O)Nc1ccc2cn[nH]c2c1 (stereo not shown) [Example 1-101]
17,≥ 200,CCCCC(NC(=O)c1[nH]c2c(c1C)C(=O)CC(C)(C)C2)C(=O)Nc1ccc(CN2CCC(F)(F)CC2)cc1 (stereo not shown) [Example 1-7]
18,50 to 200,Cc1ccc(NC(=O)C(CCC2CC2)NC(=O)c2[nH]c3c(c2C)C(=O)CC(C)(C)C3)cc1 (stereo not shown) [Example 1-61]

# Same assay, conditions: read-out: Inhibitory activity (G9a IC50)
row,Structure (SMILES),IC50 [nM]
1,"Cc1c(C(=O)NC(CCC2CC2)c2nc3cc(CO)ccc3n2C)[nH]c2c1C(=O)CC(C)(C)C2 (stereo not shown) [Example 33, N-[3-cyclopropyl-1-[5-(hydroxymethyl)-1-methylbenzoimidazol-2-yl]propyl]-3,6,6-trimethyl-4-oxo-5,7-dihydro-1H-indole-2-carboxamide]",≥ 200
2,Cc1c(C(=O)NC(CCC2CC2)C(=O)N2CCc3ccc(O)cc32)[nH]c2c1C(=O)CC(C)(C)C2 (stereo not shown) [Example 1-136],≥ 200
3,"CCCCC(NC(=O)c1[nH]c2c(c1C)C(=O)CC(C)(C)C2)C(=O)NCc1ccc(CO)cc1 (stereo not shown) [Example 16, N-[1-[[4-(hydroxymethyl)phenyl]methylamino]-1-oxohexan-2-yl]-3,6,6-trimethyl-4-oxo-5,7-dihydro-1H-indole-2-carboxamide]",≥ 200
4,CCCCC(NC(=O)c1[nH]c2c(c1C)C(=O)CC(C)(C)C2)C(=O)Nc1ccc(N2CCC3(CNC3)C2)nc1 (stereo not shown) [Example 27],50 to 200
5,Cc1c(C(=O)NC(CCC2CC2)C(=O)N2CCc3cc(OCCN4CCCCC4)ccc32)[nH]c2c1C(=O)CC(C)(C)C2 (stereo not shown) [Example 1-135],50 to 200
6,Cc1c(C(=O)NC(CCC2CC2)C(=O)N2CCc3cc(CN4CCCCC4)ccc32)[nH]c2c1C(=O)CC(C)(C)C2 (stereo not shown) [Example 1-129],≥ 200
7,CCCCC(NC(=O)Cc1ccccc1N)C(=O)Nc1ccc(OC2CCN(C)CC2)nc1 (stereo not shown) [Example 29],≥ 200
8,Cc1c(C(=O)NC(CCC2CC2)C(=O)N2CCc3c(OC4CCN(C)CC4)cccc32)[nH]c2c1C(=O)CC(C)(C)C2 (stereo not shown) [Example 1-124],50 to 200
9,Cc1cccc2c1CCN2C(=O)C(CCC1CC1)NC(=O)c1[nH]c2c(c1C)C(=O)CC(C)(C)C2 (stereo not shown) [Example 1-116],≥ 200
10,Cc1c(C(=O)NC(CCC2CC2)C(=O)N2CCc3cc(CN(C)C)ccc32)[nH]c2c1C(=O)CC(C)(C)C2 (stereo not shown) [Example 1-125],≥ 200

# Now from value to compound:
row,IC50 [nM],Structure (SMILES)
1,≥ 200,CCCCC(NC(=O)c1[nH]c2c(c1C)C(=O)CC(C)(C)C2)C(=O)Nc1ccc2c(c1)CCN(C)C2 (stereo not shown) [Example 5-2]
2,< 50,"CCc1cc(C)ncc1NC(=O)C(CCC1CC1)NC(=O)c1[nH]c2c(c1C)C(=O)CC(C)(C)C2 (stereo not shown) [Example 6-1, N-[4-cyclopropyl-1-[(4-ethyl-6-methylpyridin-3-yl)amino]-1-oxobutan-2-yl]-3,6,6-trimethyl-4-oxo-5,7-dihydro-1H-indole-2-carboxamide]"
3,< 50,CCCCC(NC(=O)c1[nH]c2c(c1C)C(=O)CC(C)(C)C2)C(=O)NCc1ccc(CN(CC)CC)cc1 (stereo not shown) [Example 18-12]
4,< 50,CCCCC(NC(=O)c1[nH]c2c(c1C)C(=O)CC(C)(C)C2)C(=O)Nc1ccc(CN(C)C)cc1 (stereo not shown) [Example 18-3]
5,≥ 200,CCCC[C@H](NC(=O)c1[nH]c2c(c1C)C(=O)CC(C)(C)C2)c1nc2ccc(OCCN3CCOCC3)cc2[nH]1 [Example 37-2]
6,< 50,O=C(NC(CCC1CC1)C(=O)Nc1ccc(C(F)(F)F)nc1)c1ccc(Nc2ccncc2)cc1 (stereo not shown) [Example 6-81]
7,≥ 200,COc1ccc(NC(=O)C(CCC2CC2)NC(=O)c2ccc(Nc3ccncc3)nc2)cn1 (stereo not shown) [Example 6-56]
8,50 to 200,CCCC[C@H](NC(=O)c1[nH]c2c(c1CC)C(=O)CC(C)(C)C2)C(=O)Nc1ccccc1 [Example 6-35]
9,50 to 200,"CCCCC(NC(=O)C(c1ccccc1)c1ccccc1)C(=O)Nc1ccc(OC2CCN(C)CC2)nc1 (stereo not shown) [Example 12-1, 2-[(2,2-diphenylacetyl)amino]-N-[6-(1-methylpiperidin-4-yl)oxypyridin-3-yl]hexane amide]"
10,≥ 200,Cc1c(C(=O)NC(CCC2CC2)c2nc3c(CN(C)C)cccc3n2C)[nH]c2c1C(=O)CC(C)(C)C2 (stereo not shown) [Example 31-3]
11,50 to 200,CCc1c(C(=O)N[C@@H](CCC2CC2)C(=O)Nc2ccc(C#N)cc2)[nH]c2c1C(=O)CC(C)(C)C2 [Example 15-3]
12,≥ 200,CCCCC(NC(=O)c1cc(S(N)(=O)=O)ccc1OC)C(=O)Nc1ccc(OC2CCN(C)CC2)nc1 (stereo not shown) [Example 6-96]
13,≥ 200,COc1ccc(NC(=O)C(CCC2CC2)NC(=O)c2ccc(CCN(C)C)cc2)cn1 (stereo not shown) [Example 6-73]
14,≥ 200,CCCC[C@H](NC(=O)c1[nH]c2c(c1C)C(=O)CC(C)(C)C2)C(=O)N1CCc2c(OC3CCN(C)CC3)cccc21 [Example 6-106]
15,≥ 200,CCCCC(NC(=O)c1sc(-c2ccccc2)nc1C)C(=O)Nc1ccc(OC2CCN(C)CC2)nc1 (stereo not shown) [Example 11-10]
16,< 50,CCc1cc(Br)ncc1NC(=O)C(CCC1CC1)NC(=O)c1[nH]c2c(c1C)C(=O)CC(C)(C)C2 (stereo not shown) [Example 6-15]
17,< 50,COc1ccc(NC(=O)C(CCC2CC2)NC(=O)c2ccc(Nc3ccncc3C)cc2)cn1 (stereo not shown) [Example 6-65]
18,< 50,CCCCC(NC(=O)c1[nH]c2c(c1C)C(=O)CC(C)(C)C2)C(=O)NCc1ccc(CNC(C)(C)C)cc1 (stereo not shown) [Example 18-4]
19,≥ 200,CCCC[C@H](NC(=O)c1[nH]c2c(c1C)C(=O)CC(C)(C)C2)c1nc2ccc(OCCCN3CCOCC3)cc2[nH]1 [Example 34-3]
20,≥ 200,CCCC[C@H](NC(=O)c1[nH]c2c(c1C)C(=O)CC1(CCCCC1)C2)C(=O)N[C@@H](C)c1ccccc1 [Example 6-43]
21,≥ 200,CCCCC(NC(=O)c1[nH]c2c(c1C)C(=O)CC(C)(C)C2)C(=O)NCc1ccc(CN2CCCC(F)(F)C2)cc1 (stereo not shown) [Example 18-7]
22,< 50,CCCCC(NC(=O)c1[nH]c2c(c1C)C(=O)CC(C)(C)C2)C(=O)NCc1ccc(N2CCNCC2)cc1 (stereo not shown) [Example 26-7]
23,50 to 200,"Cc1c(C(=O)NC(CCC2CC2)c2nc3ccccc3n2C)[nH]c2c1C(=O)CC(C)(C)C2 (stereo not shown) [Example 30-1, N-[3-cyclopropyl-1-(1-methylbenzoimidazol-2-yl)propyl]-3,6,6-trimethyl-4-oxo-5,7-dihydro-H-indole-2-carboxamide]"
24,50 to 200,COc1ccc(NC(=O)C(CCC2CC2)NC(=O)c2ccc(CCCN(C)C)cc2)cn1 (stereo not shown) [Example 6-74]
25,50 to 200,CCCCC(NC(=O)c1[nH]c2c(c1C)C(=O)CC(C)(C)C2)C(=O)Nc1ccc(OC2CNC2)nc1 (stereo not shown) [Example 26-1]
26,≥ 200,COc1ccc(NC(=O)C(CCC2CC2)NC(=O)c2cccc(CCCN(C)C)c2)cn1 (stereo not shown) [Example 6-75]
27,< 50,CCCCC(NC(=O)c1[nH]c2c(c1C)C(=O)CC(C)(C)C2)C(=O)Nc1ccc(C)cc1CC (stereo not shown) [Example 14-2]
28,≥ 200,CCCC[C@H](NC(=O)c1[nH]c2c(c1CCC)C(=O)CC(C)(C)C2)C(=O)Nc1ccccc1 [Example 6-37]
29,50 to 200,Cc1c(C(=O)NC(CCC2CC2)C(=O)Nc2ccc(C(F)(F)F)nc2)[nH]c2c1C(=O)CC(C)(C)C2 (stereo not shown) [Example 6-8]
30,50 to 200,Cc1c(C(=O)NC(CCC2CC2)c2nc3cccc(C)c3n2C)[nH]c2c1C(=O)CC(C)(C)C2 (stereo not shown) [Example 30-2]
